{
  "source": "patent US20060276372A1",
  "about": "“Carotenoids, carotenoid analogs, or carotenoid derivatives for the treatment of proliferative disorders” (priority 2005, published 2006)",
  "key": {"[1]": {"tested_on": "human prostate cancer cells", "settings": "cited from earlier work"}, "Connexin43 (Cx43)": {"tested_on": "Connexin43 (Cx43)", "experiment": "Relative Cx43 protein levels by Western blot in C3H10T1/2 cells (Example 3)", "format": "cell-based", "settings": "Mus musculus, C3H 10T1/2, 168 h, read-out: Fold induction of Cx43 expression", "source_text": "Treatments/Compounds._TTNPB (Biomol, Plymouth Meeting, Pa.); stock 5×10^−6M in acetone, diluted 1:500 in culture media (final 10^−8 M in 0.2% acetone). Lycophyll (All-trans, 95% pure, Hawaii Biotech, Inc., Aiea, Hi.); stocks 10^−2 M and 10^−3 M in tetrahydroftiran (THF; Sigma, St. Louis, Mo.) diluted 1:1000 and stirred into culture media immediately before treatment (final 10^−5 M and 10^−6 M in 0.1% THF). Lycopene (92.7% pure, Chromadex, Inc., Santa Ana, Calif.); stocks 10^−2 M and 10^−3 M in tetrahydrofuran (Sigma, St. Louis, Mo.) diluted 1:1000 and stir into culture media immediately before treatment (final 10^−5 M and 10^−6 M in 0.1% THF). […]\nSDS-PAGE Electrophoresis, Transfer and Immunodetection. […] Lysates were sonicated and protein concentrations quantified using the BCA protein determination assay (Pierce, Rockford, Ill.). […] Protein standards were utilized to confirm molecular weight of detected protein (SeeBlue, Invitrogen, Carlsbad, Calif.). […] Cx43 protein was detected according to the manufacturer's instructions using the WesternBreeze Immunodetection Kit (Invitrogen, Carlsbad, Calif.) and a rabbit primary antibody reactive against the cytoplasmic tail of Cx43 (1:2000, Sigma, St. Louis, Mo.).\nQuantification of Relative Western Blot Cx43 Protein Levels. […]"}, "10T1/2 cells [2]": {"tested_on": "10T1/2 cells", "experiment": "Gap junctional communication, scrape-loading dye transfer assay", "format": "cell-based, Mouse", "settings": "7 days", "description": "Gap junctional communication assay. Junctional permeability was assayed by the scrape-loading dye transfer assay essentially as described in El-Fouly et al., 1987, which is incorporated herein by reference. Briefly, confluent cultures of 10T1/2 cells grown in 60 mm dishes were treated with the indicated compounds for 7 days. The treated cells were washed with Ca^+2-free phosphate-buffered saline (PBS). 1.5 ml of Lucifer Yellow CH (Sigma, St. Louis, Mo.) 0.2% in PBS was then added, and linear cuts were made on the monolayer using a surgical scalpel. The cultures were incubated for 2 minutes at 37° C. then rinsed thoroughly with PBS. The cultures were then fixed with 2 ml of 5% formaldehyde in PBS. Images were digitally quantitated by intensity thresholding using the SigmaScan software program (Jandel Scientific, San Rafael, Calif.)."}, "[3]": {"experiment": "Determination of aqueous solubility/dispersibility", "format": "physicochemical", "settings": "USP-purified water, 2 hours, supernatant by UV/Vis", "description": "(§1) Determination of aqueous solubility/dispersibility. 30.13 mg of 3 was added to 1 mL of USP-purified water. The sample was rotated for 2 hours, then centrifuged for 5 minutes. After centrifuging, solid was visible in the bottom of the tube. A 125-μL aliquot of the solution was then diluted to 25 mL. The sample was analyzed by UV/Vis spectroscopy at 436 nm, and the absorbance was compared to a standard curve compiled from 4 standards of known concentration. The concentration of the original supernatant was calculated to be 2.85 mg/mL and the absorptivity was 36.94 AU*mL/cm*mg. Slight error may have been introduced by the small size of the original aliquot.\nas §1, with “Next, 30.80” for “Determination of aqueous solubility/dispersibility. 30.13”, “9” for “3”, “UViis” for “UV/Vis”, “411” for “436”, “The concentration of the original supernatant was calculated to be 2.85 mg/mL and the absorptivity was 36.94 AU*mL/cm*mg.” left out\nDetermination of aqueous solubility/dipsersibility of pAST. 23.70 mg of tetrasodium diphosphate astaxanthin was added to 1 ml of USP purified water. The mixture was stirred for 2 hours, and centrifuged for 5 minutes. The solution was diluted in water and analyzed by UV/vis spectroscopy at 480 nm and absorbance was compared to a standard curve compiled from 4 standards of known concentration."}, "CX43 protein": {"tested_on": "CX43 protein", "experiment": "CX43 protein expression in 10T1/2 cells by Western blotting (Example 1)", "format": "cell-based, Mouse", "settings": "4 days", "description": "Cell lines and culture conditions. Mouse embryonic fibroblast 10T1/2 cells were cultured in Eagle's basal medium with Earle's salts supplemented with 4% fetal calf serum (Atlanta Biologicals, Norcross, Ga.), 25 μg/ml gentamicin sulfate (Sigma, St. Louis, Mo.), and passaged by trypsin/EDTA (Gibco Invitrogen, Carlsbad, Calif.) and maintained at 37° C. in a 5% CO2 atmosphere. The cells were allowed to grow until a monolayer was formed. The confluent cells were treated 7 days after seeding, unless otherwise indicated. dAST was prepared in a formulation of 20% EtOH and sterile water (0.2% final EtOH ) to minimize supramolecular aggregation, and the final concentration of EtOH in culture medium was 0.2%. CTX was dissolved in THF and added to media. TTNPB was dissolved in acetone (Sigma, St. Louis, Mo.) and cultures received a final acetone concentration of 0.1%.\nAnalysis of CX43 protein expression. Expression of CX43 protein in 10T1/2 cells was assessed by Western blotting. 10T1/2 cell monolayers were treated with the indicated carotenoid derivatives or with retinoids (as a positive control for the modulation of CX43 expression) 7 days after seeding in 100 mm dishes (Fisher Scientific, Pittsburgh, Pa.). Fours days after the drug was added to the cells, the cells were harvested, total cellular protein was isolated and the total protein concentration thereof was determined using a commercially available Protein Assay Reagent kit (Pierce Chemical Co., Rockford, Ill.). 40 μg of total cellular protein was resolved on an SDS-PAGE gel, transferred to a nitrocellulose membrane, and analyzed by Western blotting using the NuPage Western blotting kit (Invitrogen, Carlsbad, Calif.). CX43 was detected using a rabbit polyclonal antibody (Zymed, San Francisco, Calif.) raised against a synthetic polypeptide corresponding to the C-terminal domain common to mouse, human and rat CX43. Equal protein loafing was verified by immunoblotting for GAPDH, the expression of which is unaffected by treatment with retinoids or carotenoids, using a rabbit polyclonal GAPDH antibody was also used (Zymed, San Francisco, Calif.). CX43 and GAPDH immunoreactive bands were visualized by chemiluminescence using an anti-rabbit HRP-conjugated secondary antibody (Pierce Chemical Co., Rockford, Ill.). Images were obtained by exposure to X-ray film as previously described and scanned for digital analysis on the Fluoro-S Imager (Bio-Rad, Richmond, Calif.)."}, "CX43": {"tested_on": "CX43", "experiment": "CX43 plaques by indirect immunofluorescence in 10T1/2 cells", "format": "cell-based, Mouse", "settings": "10^−6 M, 4 days", "description": "Analysis of CX43 protein by indirect immunofluorescence. Expression and assembly of CX43 into plaques was assessed by immunofluorescence staining essentially as described in Rogers et al, 1990, which is incorporated herein by reference. Briefly, confluent cultures of 10T1/2 cells were grown on Permanox plastic 4-chamber slides (Nalge Nunc International, Naperville, Ill.) and treated for 4 days as described above. Cells were fixed with −20° C. methanol overnight, washed in buffer, blocked in 1% bovine serum albumin (Sigma, St. Louis, Mo.) in PBS, incubated with the rabbit anti-CX43 antibody, and visualized with Alexa568 conjugated anti-rabbit secondary antibody (Molecular Probes, Eugene, Oreg.). Images were acquired with a Zeiss Axioplan microscope and a Roper Scientific cooled CCD camera."}, "10T1/2 cells [4]": {"tested_on": "10T1/2 cells", "format": "cell-based, Mouse", "settings": "for % Inhibition of MCA-induced transformation: 4 week period; for Foci/dish (mean Type II + Type III foci, 24 dishes): 4 week period after MCA", "description": "Inhibition of MCA-induced neoplastic transformation in 10T1/2 cells. Cells were initiated with methylcholanthrene (MCA) […] (Sigma, St. Louis, Mo.) in acetone for 24 hours. Potential inhibitors of neoplastic transformation were added 7 days after removal of carcinogen as indicated and were renewed weekly by adding fresh medium supplemented with the appropriate drug for four weeks after removal of the carcinogen. The cultures were fixed and stained as described above. A total of 24 dishes of cells were used per treatment group. Type II and III foci were identified and then quantitated as described in Bertram et al., 1990, which is incorporated herein by reference.\nStatistical analysis. Transformation data was analyzed by one-tailed, two-sample t-tests that incorporated unequal variances. The scrape-loading data was analyzed by paired t-tests."}},
  "note": "Like-named read-outs stand apart in the source and are kept apart here.",
  "data": [
    {"smiles": "CC(C)c1ccc2c(c1)c(SC(C)(C)C)c(CC(C)(C)C(=O)O)n2Cc1ccc(Cl)cc1", "note": "[MK886]", "values": [
      {"measurement": "apoptosis of prostate cancer cells", "setting": "[1]; Ghosh et al.", "value": "massive apoptosis"},
      {"measurement": "cells in culture killed", "setting": "[1]; concentration of 10 mM", "value": "more than 90%"}
    ]},
    {"smiles": "CC(C)=CCC/C(C)=C/C=C/C(C)=C/C=C/C(C)=C/C=C/C=C(C)/C=C/C=C(C)/C=C/C=C(\\C)CCC=C(C)C", "note": "[lycopene, reference compound]", "values": [
      {"measurement": "fold induction at 1 µM", "setting": "Connexin43 (Cx43)", "value": 1.55},
      {"measurement": "fold induction at 10 µM", "setting": "Connexin43 (Cx43)", "value": 1.51}
    ]},
    {"smiles": "CC1=C(/C=C/C(C)=C/C=C/C(C)=C/C=C/C=C(C)/C=C/C=C(C)/C=C/C2=C(C)C(=O)C(OP(=O)([O-])[O-])CC2(C)C)C(C)(C)CC(OP(=O)([O-])[O-])C1=O.[Na+].[Na+].[Na+].[Na+]", "note": "(stereo not shown) [pAST, tetrasodium diphosphate astaxanthin]", "values": [
      {"measurement": "increase of GJIC (dye transfer) over untreated control cultures", "setting": "10T1/2 cells [2]; 10^−9 M", "value": "approximately 4 fold"},
      {"measurement": "relative amount of GJIC over concentration range", "setting": "10T1/2 cells [2]; concentrations ranging from 10^−10 to 10^−6 M", "value": "remained constant over a 4-log concentration range"},
      {"measurement": "aqueous solubility/dispersibility", "setting": "[3]", "value": 25.21, "unit": "mg/mL"},
      {"measurement": "CX43 protein induction versus solvent-treated controls", "setting": "CX43 protein; 10^−5 M", "value": "no change"},
      {"measurement": "CX43 protein induction versus solvent-treated controls", "setting": "CX43 protein; 10^−6 M", "value": "about 5 fold"},
      {"measurement": "CX43 protein induction versus solvent-treated controls", "setting": "CX43 protein; 10^−7 M", "value": "~2", "unit": "fold"},
      {"measurement": "CX43 immunoreactive plaques at regions of cell/cell apposition", "setting": "CX43", "value": "increased the prevalence of CX43 immunoreactive plaques"},
      {"measurement": "cumulative toxicity, monolayer formation", "setting": "10T1/2 cells [4]; 10^−5 M for 4 weeks", "value": "failed to form complete monolayers"},
      {"measurement": "neoplastic transformation", "setting": "10T1/2 cells [4]; 10^−5 M for 4 weeks", "value": "strongly inhibited"},
      {"measurement": "% Inhibition of MCA-induced transformation", "setting": "10T1/2 cells [4]; 10^−6 M", "value": 100, "unit": "%"},
      {"measurement": "Foci/dish (mean Type II + Type III foci, 24 dishes)", "setting": "10T1/2 cells [4]; 10^−6 M", "value": "No foci"},
      {"measurement": "Foci/dish (mean Type II + Type III foci, 24 dishes)", "setting": "10T1/2 cells [4]; 10^−6 M, listed as drawing 75", "value": 0, "unit": "foci/dish"},
      {"measurement": "% Inhibition of MCA-induced transformation", "setting": "10T1/2 cells [4]; 10^−7 M", "value": 44, "unit": "%"},
      {"measurement": "Foci/dish (mean Type II + Type III foci, 24 dishes)", "setting": "10T1/2 cells [4]; 10^−7 M", "value": "substantially lowered levels of neoplastic transformation"},
      {"measurement": "Foci/dish (mean Type II + Type III foci, 24 dishes)", "setting": "10T1/2 cells [4]; 10^−7 M, listed as drawing 75", "value": 0.91, "unit": "foci/dish"},
      {"measurement": "% Inhibition of MCA-induced transformation", "setting": "10T1/2 cells [4]; 10^−8 M", "value": 36, "unit": "%"},
      {"measurement": "Foci/dish (mean Type II + Type III foci, 24 dishes)", "setting": "10T1/2 cells [4]; 10^−8 M", "value": "substantially lowered levels of neoplastic transformation"},
      {"measurement": "Foci/dish (mean Type II + Type III foci, 24 dishes)", "setting": "10T1/2 cells [4]; 10^−8 M, listed as drawing 75", "value": 1.04, "unit": "foci/dish"}
    ]}
  ]
}
